Measurements as given in patent US5288720A, “Angiotensin II receptor blocking 2,3,6 substituted quinazolinones” (American Cyanamid Company, priority 1993, dated 1994).

How the values were obtained:
Angiotensin II Receptor = target: T1, Angiotensin II Receptor (Bos taurus, UniProt P25104); assay: Receptor Binding Assay: Binding of [^125 I](Sar^1,Ile^8)AngII to beef adrenal cortex membranes; details: 60 min, room temperature
T1 construct: The brownish tissue forming the adrenal cortex is scraped off and finely minced with scissors before homogenization; from tissue; host or cells: beef adrenal cortex, microsomal membranes (100,000×g pellet); fresh glands from a local slaughter house (Maxwell-Cohen)
T1 sequence (P25104 1-359): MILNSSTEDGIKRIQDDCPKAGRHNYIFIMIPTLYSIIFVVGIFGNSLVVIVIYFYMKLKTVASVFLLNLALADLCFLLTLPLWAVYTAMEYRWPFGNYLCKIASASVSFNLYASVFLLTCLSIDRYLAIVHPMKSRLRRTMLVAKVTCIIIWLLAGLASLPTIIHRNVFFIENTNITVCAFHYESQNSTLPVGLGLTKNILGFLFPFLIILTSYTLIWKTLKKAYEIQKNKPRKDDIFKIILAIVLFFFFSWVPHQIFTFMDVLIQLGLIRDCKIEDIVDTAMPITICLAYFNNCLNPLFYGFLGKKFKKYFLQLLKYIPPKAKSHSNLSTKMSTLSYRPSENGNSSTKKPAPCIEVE
From the text: Beef adrenals are obtained from a local slaughter house (Maxwell-Cohen). [^125 […]. 2200 Ci/mmole, is purchased from Dupont (NEN®, Boston, Mass.). All unlabeled AngII analogs, Dimethylsulfoxide (DMSO), nucleotides, bovine serum albumin (BSA) are purchased from Sigma Chemical Co., St. Louis, Mo. U.S.A. […] Approximately sixteen (16) to twenty (20) beef adrenal glands are processed as follows: fresh adrenal glands received on crushed ice are cleaned of fatty tissues and the tough membranes encapsulating the glands are removed and discarded. The brownish tissue forming the adrenal cortex is scraped off and finely minced with scissors before homogenization. Care is taken to avoid contamination with medullary tissue during dissection. The scraped cortices are suspended in twenty volumes of an ice-cold buffer medium consisting of 10 mM Tris.HCl (pH 7.4 at 22° C.) and containing 1.0 mM EDTA and 0.2M sucrose. Unless otherwise indicated, all subsequent operations are done at 4° C. […] The homogenate is centrifuged first at low speed (3,000×g) for 10 minutes. […] This P2 pellet is discarded and the liquid phase is carefully decanted off in clean centrifuge tubes and recentrifuged at high speed (100,000×g) for 60 minutes. The translucent final pellet is harvested and combined in a small volume (20-50.0 ml) of 50.0 mM Tris.HCl buffer, pH 7.2. A 100 ul aliquot is withdrawn and the protein content of the preparation is determined by the Lowry's method (Lowry, O. H., Rosebrough, […]. and Randall, R. J., Protein measurement with Folin phenol reagent. J. Biol. Chem., […], 265-275, 1951). The pelleted membrane is reconstituted in 50.0 mM Tris.HCl buffer containing 0.1 mM of phenylmethylsulfonyl fluoride (PMSF) to give approximately a protein concentration of 2.5 mg per ml of tissue suspension. […] Receptor Binding Assay: […] In competition studies, experimental compounds are diluted in dimethylsulfoxide (DMSO) and added in 20 ul to wells before the introduction of tissue membranes. […] Assays are performed in triplicate. The wells are left undisturbed for 60 minutes at room temperature. Following incubation, all wells are harvested at once with a Brandel® Harvester especially designed for a 96 well plate (Brandel® Biomedical Research & Development Labs. Inc., Gaithersburg, Md., U.S.A.). The filter discs are washed with 10×1.0 ml of cold 0.9% NaCl to remove unbound ligand. Presoaking the filter sheet in 0.1% polyethyleneimine in normal saline (PEI/Saline) greatly reduces the radioactivity retained by the filter blanks. This method is routinely used. The filters are removed from the filter grid and counted in a Parkard® Cobra Gamma Counter for 1 minutes. (Packard Instrument Co., Downers Grove, Ill, U.S.A.). The binding data are analyzed by the non-linear interactive "LUNDON-1" program (LUNDON SOFTWARE Inc., Cleveland, Ohio U.S.A.).

[1] = test system: ANGIOTENSIN II VASOPRESSOR RESPONSE; assay: AII Challenge: blockade of angiotensin II vasopressor response in conscious SHR; assay type: in vivo, rat (Conscious Male Okamoto-Aoki SHR); details: SHR n=2, 3 mg/kg i.v.
From the text: By administering a compound of this invention to a rat, and then challenging with angiotensin II, a blockage of the vasopressor response is realized.
Conscious Male Okamoto-Aoki SHR, 16-20 weeks old, weighing approximately 330 g are purchased from Charles River Labs (Wilmington, Mass.). Conscious rats are restrained in a supine position with elastic tape. The area at the base of the tail is locally anesthetized by subcutaneous infiltration with 2% procaine. The ventral caudal artery and vein are isolated, and a cannula made of polyethylene (PE) 10-20 tubing (fused together by heat) is passed into the lower abdominal aorta and vena cava, respectively. The cannula is secured, heparinized (1,000 I.U./ml), sealed and the wound is closed. The animals are placed in plastic restraining cages in an upright position. The cannula is attached to a Statham P23Db pressure transducer, and pulsatile blood pressure is recorded to 10-15 minutes with a Gould Brush recorder. (Chan et al., (Drug Development Res., 18:75-94, 1989).
Angiotensin II (human sequence, Sigma Chem. Co., St. Louis, MO) of 0.05 and 0.1 ug/kg i.v. is injected into all rats (predosing response). Then a test compound, vehicle or a known angiotensin II antagonist is administered i.v., i.p. or orally to each set of rats. The two doses of angiotensin II are given to each rat again at 30, 60, 90, 120, 180, 240 and 300 minutes post dosing the compound or vehicle. The vasopressor response of angiotensin II is measured for the increase in systolic blood pressure in mmHg. The percentage of antagonism or blockade of the vasopressor response of angiotensin II by a compound is calculated using the vasopressor response (increase in systolic blood pressure) of angiotensin II of each rat predosing the compound as 100%. A compound is considered active if at 30 mg/kg i.v. it antagonized at least 50% of the response.

[2] = AII 0.01 mcg/kg IV (so in the source), 30 min post dose
[3] = AII 0.05 mcg/kg IV, 30 min post dose
[4] = AII 0.05 mcg/kg IV, 60 min post dose
[5] = AII 0.05 mcg/kg IV, 90 min post dose
[6] = AII 0.05 mcg/kg IV, 120 min post dose
[7] = AII 0.05 mcg/kg IV, 180 min post dose
[8] = AII 0.05 mcg/kg IV, 240 min post dose
[9] = AII 0.05 mcg/kg IV, 300 min post dose
[10] = AII 0.1 mcg/kg IV, 60 min post dose
[11] = AII 0.1 mcg/kg IV, 90 min post dose
[12] = AII 0.1 mcg/kg IV, 120 min post dose
[13] = AII 0.1 mcg/kg IV, 180 min post dose
[14] = AII 0.1 mcg/kg IV, 240 min post dose
[15] = AII 0.1 mcg/kg IV, 300 min post dose
[16] = AII 0.1 mcg/kg IV, 30 min post dose

Row | SMILES | IC50 (Angiotensin II Receptor) | % Inhibition of AII vasopressor response [1, 3] | Average Change (systolic blood pressure response to AII) [1, 3] | % Inhibition of AII vasopressor response [1, 4] | Average Change (systolic blood pressure response to AII) [1, 4] | % Inhibition of AII vasopressor response [1, 5] | Average Change (systolic blood pressure response to AII) [1, 5] | % Inhibition of AII vasopressor response [1, 6] | Average Change (systolic blood pressure response to AII) [1, 6] | % Inhibition of AII vasopressor response [1, 7] | Average Change (systolic blood pressure response to AII) [1, 7] | % Inhibition of AII vasopressor response [1, 8] | Average Change (systolic blood pressure response to AII) [1, 8] | % Inhibition of AII vasopressor response [1, 9] | Average Change (systolic blood pressure response to AII) [1, 9] | % Inhibition of AII vasopressor response [1, 10] | Average Change (systolic blood pressure response to AII) [1, 10] | % Inhibition of AII vasopressor response [1, 11] | Average Change (systolic blood pressure response to AII) [1, 11] | % Inhibition of AII vasopressor response [1, 12] | other results
1 | CCCCc1nc2ccc(C(O)C3CCCS3(=O)=O)cc2c(=O)n1Cc1ccc(-c2ccccc2-c2nn[nH]n2)cc1 (single isomer, unassigned; isomer 1) [Example 15, 2-Butyl-6-[hydroxy(tetrahydro-2-thienyl)methyl-3-[[2'-(1H-tetrazol-5-yl)[1,1'-biphenyl]-4-yl]methyl]-4(3H)-quinazolinone S,S-dioxide isomer 1] | 110 nM | 88% | 5 mmHg | 73% | 11 mmHg | 83% | 7 mmHg | 32% | 27.5 mmHg | 42% | 23.5 mmHg | 38% | 25 mmHg | 26% | 30 mmHg | 63% | 18.5 mmHg | 54% | 23 mmHg | 45% | % Inhibition of AII vasopressor response [1, 2]: 75%; Average Change (systolic blood pressure response to AII) [1, 2]: 12.5 mmHg; Average Change (systolic blood pressure response to AII) [1, 12]: 27.5 mmHg; % Inhibition of AII vasopressor response [1, 13]: 50%; Average Change (systolic blood pressure response to AII) [1, 13]: 25 mmHg; % Inhibition of AII vasopressor response [1, 14]: 50%; Average Change (systolic blood pressure response to AII) [1, 14]: 25 mmHg; % Inhibition of AII vasopressor response [1, 15]: 45%; Average Change (systolic blood pressure response to AII) [1, 15]: 27.5 mmHg
2 | CCCCc1nc2ccc(C(C)(O)C3CCN(C)C3=O)cc2c(=O)n1Cc1ccc(-c2ccccc2-c2nn[nH]n2)cc1 (single isomer, unassigned; isomer 2) [Example 48, 2-Butyl-6-1-hydroxy-1(1-methyl-2-oxo-3-pyrrolidinyl)ethyl]-3-[[2'-(1H-tetrazol-5-yl)[1,1'-biphenyl]-4-yl]methyl-4(3H)-quinazolinone isomer 2] | 43 nM | 92% | 3.5 mmHg | 89% | 5 mmHg | 83% | 7.5 mmHg | 97% | 1.5 mmHg | 69% | 13.5 mmHg | 68% | 14 mmHg | 71% | 12.5 mmHg | 100% | 0 mmHg | 95% | 2.5 mmHg | 84% | % Inhibition of AII vasopressor response [1, 16]: 95%; Average Change (systolic blood pressure response to AII) [1, 16]: 25 mmHg; Average Change (systolic blood pressure response to AII) [1, 12]: 8.5 mmHg; % Inhibition of AII vasopressor response [1, 13]: 57%; Average Change (systolic blood pressure response to AII) [1, 13]: 22.5 mmHg; % Inhibition of AII vasopressor response [1, 14]: 52%; % Inhibition of AII vasopressor response [1, 15]: 57%; Average Change (systolic blood pressure response to AII) [1, 15]: 22.5 mmHg
3 | CCCCc1nc2ccc(C(C)(O)C3CCCN(C)C3=O)cc2c(=O)n1Cc1ccc(-c2ccccc2-c2nn[nH]n2)cc1 (single isomer, unassigned; isomer 2) [Example 53, 2-Butyl-6-[1-hydroxy(1-methyl-2-oxo-3-piperidinyl)ethyl]-3-[[2'-(1H-tetrazol-5-yl)[1,1'-biphenyl]-4-yl]methyl]-4(3H)-quinazolinone isomer 2] | 54 nM | 89% | 5 mmHg | 89% | 5 mmHg | 58% | 20 mmHg | 58% | 20 mmHg | 37% | 30 mmHg | 58% | 20 mmHg | 53% | 22.5 mmHg | 61% | 20 mmHg | 76% | 12.5 mmHg | 61% | % Inhibition of AII vasopressor response [1, 16]: 76%; Average Change (systolic blood pressure response to AII) [1, 16]: 12.5 mmHg; Average Change (systolic blood pressure response to AII) [1, 12]: 20 mmHg; % Inhibition of AII vasopressor response [1, 13]: 42%; Average Change (systolic blood pressure response to AII) [1, 13]: 30 mmHg; % Inhibition of AII vasopressor response [1, 14]: 43%; Average Change (systolic blood pressure response to AII) [1, 14]: 29.5 mmHg; % Inhibition of AII vasopressor response [1, 15]: 17%; Average Change (systolic blood pressure response to AII) [1, 15]: 42.5 mmHg
